Measured values published in US20050238651A1, “Treatment of inflammatory bowel disease” (priority 2003, published 2005).

What was measured:
IFN-γ mRNA = assay: Real-time PCR of colonic IFN-γ mRNA
interleukin (IL)-2 mRNA = assay: Real-time PCR of colonic IL-2 mRNA; conditions: 4 days after TNBS
[1] = tested on: Trinitrobenzene Sulfonic Acid colitis; conditions: mouse, in vivo
[2] = tested on: indoleamine 2,3-dioxygenase protein; assay: Western blotting of indoleamine 2,3-dioxygenase protein in distal colon lysates; type: in vivo, mouse; conditions: four days after TNBS, 1-mT versus placebo
Experimental: (§1) Six week old female SJL/J mice weighing approximately 20 grams, which were maintained at a controlled temperature and light/dark cycle in a pathogen free facility, were anesthetized with an intraperitoneal injection of a 10% Ketamine/Xylazine mixture. […] Mice were sacrificed 4 days after treatment for determination of indoleamine 2,3-dioxygenase protein and mRNA levels.
Western blotting (Bio-Rad, Hercules, Calif.) for determining indoleamine 2,3-dioxygenase protein amount was performed on whole colon lysates obtained from the distal colons of both control mice and mice treated with Trinitrobenzene Sulfonic Acid. For Lamina Propria Mononuclear cells, 1×10^6 cells were concentrated and loaded per lane. The samples were denatured and separated on an 8% Sodium Dodecyl Sulphate-Polyacrylamide (SDS-PAGE) gel. After electrophoresis, the separated proteins were then transferred to an Immobilon-P Transfer Membrane (Millipore, Be-dford, Mass.). […] The secondary antibodies were donkey anti-rabbit linked to horseradish peroxidase. After probing for indoleamine 2,3-dioxygenase protein, the membranes were stripped and reprobed for β-actin, which was used in addition to the protein assay to ensure equal protein loading.
Western blotting for indoleamine 2,3-dioxygenase was performed as follows. […] The protein was detected using ECL (Amersham). […]

TNFα mRNA = assay: Real-time PCR of colonic TNFα mRNA; type: in vivo, mouse; conditions: TNBS colitis, Day 4; PBS 5 fold
[3] = tested on: indoleamine 2,3-dioxygenase mRNA; assay: Real-time PCR of indoleamine 2,3-dioxygenase mRNA in distal colon; type: in vivo, SJL/J mouse; conditions: TNBS colitis, Day 4; PBS 8 fold
From the text: as §1

IL-12 mRNA = assay: Real-time PCR of colonic IL-12 mRNA; conditions: 4 days after TNBS, Example 5; placebo 20-fold
IL-1 mRNA = assay: Real-time PCR of colonic IL-1 mRNA; conditions: 4 days after TNBS
TGFβ1 mRNA = assay: Real-time PCR of colonic TGFβ / TGFβ1 mRNA
[4] = tested on: Forkhead box P3 (Foxp3) mRNA; assay: Real-time PCR of colonic Foxp3 mRNA; type: in vivo, mouse; conditions: Day 4 of TNBS colitis
[5] = tested on: lymphocytes in lamina propria lymphoid aggregates; assay: BrdU immunohistochemistry of lymphocyte proliferation in lamina propria lymphoid aggregates; type: in vivo, mice; conditions: 4 days and 6 days after TNBS
Experimental: Lymphocyte proliferation was determined by BrdU labeling of lamina propria lymphoid aggregates of mice treated with Trinitrobenzene Sulfonic Acid enemas plus subcutaneous pellets containing 1-methyl-tryptophan.
BrdU immunohistochemistry was performed to measure cellular proliferation in hypertrophied lymphoid aggregates within the lamina propria of Trinitrobenzene Sulfonic Acid ±1-methyl-tryptophan treated mice. Mice were given rectal Trinitrobenzene Sulfonic Acid and subcutaneous pellets containing 1-methyl-tryptophan or placebo. Groups of mice were sacrificed at 4 days and 6 days after Trinitrobenzene Sulfonic Acid administration. Each mouse received BrdU two hours prior to sacrifice in order to label the S-phase cells. Four micro paraffin sections were prepared from the inflamed colon segments with macroscopically visible hypertrophied colonic patches then labeling was performed as previously described in Riehl, Gasteroenterology, 118: 1106-16, 2000.

TNBS colitis = TNBS colitis treated with CTLA-4-Ig with or without 1-mT: weight, survival, clinical characteristics, histological and morphological scoring; type: in vivo, SJL/J mice
[6] = tested on: indoleamine 2,3-dioxygenase in lamina propria mononuclear cells; assay: IDO expression in cultured colonic lamina propria mononuclear cells incubated with rIFN-γ and/or LPS; type: cell-based, mouse

## Cn1cc(C[C@H](N)C(=O)O)c2ccccc21 [1-mT, 1-methyltryptophan]
IFN-γ mRNA; 4 days after TNBS, Example 5, placebo 8-fold
  IFN-γ expression increase over baseline: 75 fold
IFN-γ mRNA; TNBS colitis, Day 4
  induction of IFN-γ mRNA: 15 fold
Interleukin (IL)-2 mRNA
  IL-2 expression versus TNBS and placebo: significantly higher expression by orders of magnitude
[1]
  effect on colonic morphology: no effect on colonic morphology
  gross morphology of colon versus placebo: significant gross morphologic differences
  histologic appearance versus placebo: no significant histologic differences
  histologic scores versus placebo: significantly higher
  survival rate: 100%
[1]; sc
  survival at 7 days after Trinitrobenzene Sulfonic Acid administration: 20%
[2]
  colonic indoleamine 2,3-dioxygenase protein amount: no difference
TNFα mRNA
  TNFα mRNA induction: 16 fold
[3]
  increase in IDO mRNA expression over controls: 2 fold
IL-12 mRNA
  IL-12 expression increase over baseline: 120 fold
IL-1 mRNA
  IL-1 mRNA levels versus TNBS alone: markedly increased
TGFβ1 mRNA; 4 days after TNBS, Example 5, placebo about half of control
  expression of TGFβ: 1.5 times control values
TGFβ1 mRNA; Day 4 of TNBS colitis
  TGFβ1 mRNA induction: 0.8 fold
[4]
  induction of Foxp3 mRNA: 11 fold
[5]
  S phase lymphocytes in lymphoid aggregates (BrdU) versus placebo: significantly more S phase lymphocytes
TNBS colitis; Day 4 of TNBS, PBS 2.9
  morphological score: 4.2
TNBS colitis; Day 4 of TNBS, PBS 5.4
  histological score: 6.6
TNBS colitis; TNBS, Day 4
  histology of distal colon: more transmural inflammation, loss of tissue architecture and vasculature, and outright necrosis
TNBS colitis; TNBS, by Day 4, PBS+TNBS 75%
  survival rate: 62.5%
TNBS colitis; TNBS, TNBS+PBS 7/9
  surviving animals with clinical characteristics of active TNBS colitis (hunched, piloerection), number of animals: 4/5
TNBS colitis; TNBS, TNBS+PBS 78%
  surviving animals with clinical characteristics of TNBS colitis: 80%
TNBS colitis; mouse, in vivo
  mortality (animals dead of animals treated): 3 of 8
  mortality rate: 37%

## rIFN-γ: recombinant interferon-γ (R&D systems)
[6]; B220+ enriched lamina propria mononuclear cell population
  indoleamine 2,3-dioxygenase expression after incubation: did express indoleamine 2,3-dioxygenase after incubation
[6]; B220-/MHCII- lamina propria mononuclear cell population
  indoleamine 2,3-dioxygenase expression after incubation: increased after incubation
[6]; MHCII+/B220- lamina propria mononuclear cell population
  indoleamine 2,3-dioxygenase expression after incubation: further induced
[6]; colon lamina propria mononuclear cells from STAT1-/- animals
  indoleamine 2,3-dioxygenase protein induction: severely blunted indoleamine 2,3-dioxygenase protein induction
[6]; colonic lamina propria mononuclear cells from C57BL/6 mice, 24 hours
  indoleamine 2,3-dioxygenase induction: increased significantly
[6]; lamina propria mononuclear cells
  concentration required to maximally increase indoleamine 2,3-dioxygenase protein: less than 1 ng/ml
[6]; unfractionated lamina propria mononuclear cells of untreated mice, 30 ng/mL, 24 hours
  indoleamine 2,3-dioxygenase expression after incubation: marked increase
